Reference: PubChem BioAssay AID1996
Values after ≈ are worked out from the molar mass of the structure shown.

Details: buffer; pH 7.4; 200.0 µM

| Structure (SMILES) | solubility kinetic |
| --- | --- |
| CC(C)CC1(C)NC(=O)N(CC(=O)Nc2ccc3c(c2)CCC3)C1=O (stereo not given) | > 51.5 µg/mL |
| O=C(COC(=O)c1ccc(F)cc1Cl)NC1CCCCCCC1 | 21.2 µg/mL (≈ 62 µM) |
| CCc1nc2ccccc2n1CC(O)COCC1CC=CCC1 (stereo not given) | > 47.2 µg/mL |
| CC1=C(C(=O)Nc2cccc(C(=O)NC(C)C)c2)SCCO1 | 47.9 µg/mL (≈ 149 µM) |
| CC(C)N(Cc1ccccc1)C(=S)Nc1ccc(F)cc1 | 45.1 µg/mL (≈ 149 µM) |
| O=C(Nc1nc(-c2cccnc2)cs1)c1cccc([N+](=O)[O-])c1 | 0.9 µg/mL (≈ 2.76 µM) |
| CCC(C)N1CCN(S(=O)(=O)Cc2ccccc2)CC1 (stereo not given) | > 44.5 µg/mL |
| S=C(NCCc1ccc(Cl)cc1)NCc1ccccc1 | 16.7 µg/mL (≈ 54.8 µM) |
| CN(Cc1ccccc1)C(=O)COC(=O)C12CC3CC(CC(Br)(C3)C1)C2 | 18.8 µg/mL (≈ 44.7 µM) |
| CS(=O)(=O)NCC(c1cccnc1)N1CCN(c2ccccc2F)CC1 (stereo not given) | 55.4 µg/mL (≈ 146 µM) |
| CN1C2=NCCN2C(=O)c2cc(Cl)ccc21 | 30.9 µg/mL (≈ 131 µM) |
| O=[N+]([O-])c1ccccc1S(=O)(=O)c1ccccc1[N+](=O)[O-] | 0.8 µg/mL (≈ 2.6 µM) |
| COCCNC(=O)C(=O)NNC(=O)CCc1ccccc1 | > 44 µg/mL |
| Cc1cc(C(=O)Nc2ccc(C(=O)O)cc2)c(C)o1 | > 38.9 µg/mL |
| CCCC1Cc2[nH]c(=O)c(C#N)cc2CO1 (stereo not given) | > 32.7 µg/mL |
| CC1(NC(=O)CCc2nc3ccccc3c(=O)[nH]2)CCS(=O)(=O)C1 (stereo not given) | 49.2 µg/mL (≈ 141 µM) |
| CN(Cc1ccccc1)C(=O)COc1ccc2ccccc2c1 | < 0.7 µg/mL |
| Cc1cccc(C)c1NC(=O)COC(=O)c1cccnc1 | > 42.6 µg/mL |
| N#CC1(NC(=O)CSc2ccccn2)CCCCC1 | > 41.3 µg/mL |
| COc1cc(/C=C2\SC(=O)NC2=O)ccc1OCC(=O)N1CCOCC1 | > 56.8 µg/mL |

| Structure (SMILES) | solubility kinetic |
| --- | --- |
| O=C(NC(=S)N1CCCCC1CO)c1cccs1 (stereo not given) | > 42.7 µg/mL |
| COc1ccc(CCNC(=O)COC(=O)c2cc3ccccc3oc2=O)cc1OC | > 61.7 µg/mL |
| O=C(O)c1ccccc1CSc1nc2ccccc2[nH]1 | > 42.6 µg/mL |
| Cc1ccc2[nH]c(=O)c(CN(C(=O)c3cccc([N+](=O)[O-])c3)C(C)(C)C)cc2c1 | 2.9 µg/mL (≈ 7.37 µM) |
| COc1cc(OC)cc(C(=O)NC(C)CCc2ccccc2)c1 (stereo not given) | 34.2 µg/mL (≈ 109 µM) |
| CC(=O)Nc1cccc(OCC(=O)Nc2sccc2C(N)=O)c1 | 4.9 µg/mL (≈ 14.7 µM) |
| Cc1ccc(S(=O)(=O)N(Cc2ccccc2)C(C)C)cc1 | 5 µg/mL (≈ 16.5 µM) |
| Nc1ccc(N2CCCC2)c(S(=O)(=O)Nc2cccc(C(F)(F)F)c2)c1 | 25.8 µg/mL (≈ 66.9 µM) |
| COc1cc(NC(=O)COC(=O)c2ccc([N+](=O)[O-])s2)cc(OC)c1OC | 10.4 µg/mL (≈ 26.2 µM) |
| CC(=O)NS(=O)(=O)c1ccc(NC(=O)c2ccc3c(c2)NC(=O)CS3)cc1 | > 60.8 µg/mL |
| Cc1c(NC(=O)CSCc2ccccc2)cccc1C(=O)O | > 47.3 µg/mL |
| O=S(=O)(c1ccc(F)c(F)c1)N1CCN(c2ccccn2)CC1 | 1.5 µg/mL (≈ 4.42 µM) |
| CN(CC(=O)NC1CCCCCCC1)S(=O)(=O)c1cnc[nH]1 | > 49.3 µg/mL |
| COc1c(F)c(F)cc2c(=O)c(C(=O)O)cn(C3CC3)c12 | > 44.3 µg/mL |
| N#Cc1c(-c2ccc(F)cc2)ccnc1N1CCOCC1 | > 42.5 µg/mL |
| Cc1cnc(C(=O)OCC(=O)c2ccc(Cl)cc2)cn1 | > 43.6 µg/mL |
| O=C(NCCCO)C(=O)c1c(-c2ccccc2)cc2ccccn12 | > 48.4 µg/mL |
| Cn1cccc1C(=O)OCc1nc2ccccc2c(=O)[nH]1 | 29.6 µg/mL (≈ 104 µM) |
| CNC(=O)NC(=O)Cn1cnc2sc(-c3ccccc3)cc2c1=O | 0.4 µg/mL (≈ 1.17 µM) |
| O=C(COC(=O)COc1ccc2c(c1)CCC2)Nc1ccccc1C(F)(F)F | 5.3 µg/mL (≈ 13.5 µM) |

| Structure (SMILES) | solubility kinetic |
| --- | --- |
| Cc1ccc(OCCNC(=O)c2cccc(C)c2)cc1 | 29 µg/mL (≈ 108 µM) |
| Cc1cc(=O)[nH]c(SCCc2ccccc2)n1 | 26.5 µg/mL (≈ 108 µM) |
| Cc1nc(Cl)c(N=Cc2cccc([N+](=O)[O-])c2)c(Cl)n1 | > 46.7 µg/mL |
| CC(=O)Nc1c(Cl)cnn(-c2ccccc2)c1=O | > 39.6 µg/mL |
| COc1cc2c(cc1OC)C(c1c(Cl)cccc1Cl)NC(=O)C2 (stereo not given) | > 52.8 µg/mL |
| CC1CCN(C(=O)c2ccccc2NC(=O)c2cccc(S(=O)(=O)N(C)C)c2)CC1 | 63.9 µg/mL (≈ 149 µM) |
| Cc1ccc(S(=O)(=O)N2CCOCC2)cc1C(=O)N1CCc2ccccc21 | 54.3 µg/mL (≈ 141 µM) |
| O=C(O)CNc1ccc(S(=O)(=O)C(F)(F)F)cc1[N+](=O)[O-] | 44.7 µg/mL (≈ 136 µM) |
| Cc1cccc(Nc2c([N+](=O)[O-])ccc3nonc23)c1 | < 0.1 µg/mL |
| NC(=O)c1ccc(NC(=O)COC(=O)C2CCN(S(=O)(=O)c3cccs3)CC2)cc1 | 25.1 µg/mL (≈ 55.6 µM) |
| O=C(NCc1csc(-c2cccs2)n1)C1CCCCC1 | 3.9 µg/mL (≈ 12.7 µM) |
| c1ccc(Oc2ncnc3sccc23)cc1 | 25.1 µg/mL (≈ 110 µM) |
| CC1CN(CC(O)COC2CCC(C(C)(C)C)CC2)CC(C)O1.Cl (stereo not given) | 48.8 µg/mL |
| COc1ccc(CCNCc2cccn2C)cc1.Cl | 40.5 µg/mL |
| O=C(CN1CCCCCC1)Nc1ccccc1Cl | 24.9 µg/mL (≈ 93.3 µM) |
| COc1ccc(NC(=O)CCCC2CCCCC2)c(OC)c1 | < 0.7 µg/mL |
| COc1ccc(Cl)cc1C(=O)n1cnc2ccccc21 | > 43 µg/mL |
| CCOC(=O)c1c(C)nc(C)c2c(=O)oc3ccccc3c12 | < 0.6 µg/mL |
| Cc1[nH]c2ccccc2c1C(=O)C(=O)N1CCN(C)CC1 | > 42.8 µg/mL |
| COc1ccc(O)c(CN2CCN(CCc3ccccc3)C(CCO)C2)c1 (stereo not given) | 54 µg/mL (≈ 146 µM) |
